Laboratory results published in patent US5434186A, “Carboxylic acid leukotriene B4 antagonists” (Hoffmann-La Roche Inc., priority 1993, dated 1995).
Where two headings read alike, the source gives them in different places.

Key:
LTB4 Receptor = target: T1, LTB4 Receptor (Homo sapiens, UniProt Q15722); assay: LTB4 Receptor Binding Assay (inhibition of 3H-LTB4 binding, human neutrophils); details: 0.5 nM 3H-LTB4, 45 minutes on ice, isolated human neutrophils
T1 construct: Isolated human neutrophils in Gey's salt solution; endogenous in cells; host or cells: human neutrophils isolated from blood (90-95% neutrophils)
Method: Binding assays can be performed in microtiter wells. Isolated human neutrophils in Gey's salt solution are incubated on ice for 45 minutes with 0.5 nM ^3 H-LTB4 in the presence or absence of test compounds. Assays are terminated by adding 12 ml ice cold 50 mM Tris (pH 7.4) followed by rapid filtration under vacuum through GF/C filters. Radioactivity is determined by scintillation counting. Non specific binding is defined as the binding not displaced by 100 fold excess of unlabelled LTB4. Specific binding is defined as the difference between total binding and non-specific binding. Non linear analysis of the binding data is performed using LIGAND (Munson and Rodbard, 1980). Ki (Inhibition Constant) values were determined using the Cheng-Prusoff relationship (Cheng and Prusoff, 1973).
(§1) Human neutrophils are prepared from citrated or heparinized blood. The blood was diluted 1:1 with Hank's balanced salt solution (HBSS) minus calcium and magnesium and underlayed with 10 ml lymphocyte separation medium (Organon Teknika), followed by centrifugation at 500× g for 30 min., at room temperature. Supernatants are removed down to the red blood cell pellet. HBSS minus calcium and magnesium are added to give 25 ml. To this are added 25 ml 6% dextran in 0.85% NaCl. Samples are mixed and allowed to stand 20 min at room temperature. Supernatants are removed and centrifuged at 500× g for 5 min at 4° C. Pellets are resuspended with 20 ml 0.2% saline for 20 sec followed by the addition of 20 ml 1.6% saline. Samples are centrifuged at 500× g for 5 min at 4° C. The lysis is repeated and the cells (90-95% neutrophils) are resuspended at 2× 10^6 cell/ml in GEY's salt solution.

[1] = tested on: LTB4 mediated calcium fluxes in human neutrophils; assay: Calcium Flux Assay (inhibition of LTB4 mediated calcium fluxes in human neutrophils); format: cell-based; details: Neutrophil; Fura2 labelled human neutrophils, 2.4 nM LTB4
Method: as §1
LTB4 induced changes in intracellular calcium concentration are measured using Fura2 labelled human neutrophils. Cells at a concentration of 2-5×10^6 /ml are labelled with 5 μM Fura2 for 30 minutes in Hank's balanced salt solution without calcium and magnesium. The cells are washed and resuspended at a final concentration of 1-2×10^7 cells/ml in Gey's solution. Calcium fluxes are initiated by the addition of 2.4 nM LTB4. Test compounds at appropriate concentrations are added to the cells just prior to the addition of LTB4. […] Fluorescence measurements are made in a Perkin Elmer model LS-5B spectrofluorimeter at a temperature setting of 37° C. Calcium concentrations are determined using the ratio method (ratio of cell fluorescence to media fluorescence).
When representative compounds of formula I of the invention were tested, the results set forth in Table H and expressed as inhibition of LTB4 mediated calcium fluxes in human neutrophils, were obtained.

[2] = tested on: LTB4 -induced skin inflammation; assay: LTB4 Induced Skin Inflammation (hairless guinea pig); format: in vivo; details: for ED50: Cavia porcellus; for ID50, LTB4-induced skin inflammation, coinjection with LTB4: co-injection, 120 ng LTB4 intradermal
Method: Skin inflammation is induced in the hairless guinea pig by the intradermal injection of 50 μl Gey's salt solution/10% DMSO containing 120 ng LTB4. Injections are performed along the dorsal skin of the animals. Test compounds are administered at various times by co-injection, intravenous or oral administration. The test animals are euthanized four to six hours after the LTB4 injection and uniform skin punches are prepared from the injection sites. Punches are homogenized in 0.5% hexadecyltrimethyl ammonium bromide for one minute and centrifuged for 20 minutes at 14,000× g. Leukocyte accumulation is measured by assaying for myeloperoxidase activity in a kinetic assay using dimethoxybenzidine as the substrate. […] Skin injected with 120 ng LTB4 can show myeloperoxidase levels of 0.30-0.40 U/punch. LTB4 induced leukocyte accumulation is confirmed histologically in hematoxylin/eosin stained sections.

[3] = tested on: LTB4 -induced bronchoconstriction; assay: Guinea Pig Bronchoconstriction In Vivo (LTB4-induced); design: species or system guinea pig (Hartley strain); details: Cavia porcellus, iv, i.v. five minutes prior to LTB4 (1 μg/kg i.v.), read-out: ID50 (mg/kg), i.v., LTB4-induced bronchoconstriction
Method: Male guinea pigs (Hartley strain) weighing 300 to 500 g are anesthetized with urethane (2 g/kg) intraperitoneally and a polyethylene cannula is inserted into the jugular vein for drug administration. Tracheal pressure is recorded from a cannula inserted into the trachea and connected to a Gould P23ID pressure transducer. After surgical preparation of the animals, a period of time is allowed for pulmonary functions to stabilize. The test compound is administered intravenously five minutes prior to leukotriene B4 administration according to the following protocol: Animals are paralyzed with succinylcholine (1.2 mg/kg i.v.) and mechanically respirated (Harvard rodent respirator) at 40 breaths/minute and 2.5 cc tidal volume. Propranolol (0.1 mg/kg) is then administered intravenously one minute prior to leukotriene B4 administration. Animals are then challenged with an intermediate constrictory dose of leukotriene B4 (1 μg/kg) delivered intravenously.
The change (cm H2 O) between pre and peak ventilatory pressure readings is averaged for five control and five drug treated animals. The percent inhibition is calculated from the formula:
((Control-Drug Treated)/Control)×100
When representative compounds of formula I of the invention were utilized as the test compounds the following results were obtained: […]

[4] = tested on: myeloperoxidase activity in mucosal scrapings; assay: Acetic acid colitis (myeloperoxidase activity in mucosal scrapings); format: in vivo, Male Wistar rats; details: rat, 10 mg/kg twice daily for 3 days, N=10
Method: Male Wistar rats, weighing 175-225 g, are pretreated with test compound at 10 mg/kg, twice daily for 3 days (72 hours) prior to the evaluation of colitis. Colitis is induced after 2 days (48 hours) with an enema of 2 ml of 3.5% acetic acid; the acetic acid is neutralized after 10 seconds by 3 ml of phosphate-buffered saline, pH 7.4. After 3 days (72 hours), animals are sacrificed and myeloperoxidase activity in mucosal scrapings is determined as described in the skin inflammation model. Myeloperoxidase levels are presented as Units/gm mucosa.

[5] = tested on: LTB4 -induced bronchoconstriction; assay: Guinea Pig Bronchoconstriction In Vivo (LTB4-induced); design: species or system guinea pig (Hartley strain); details: Cavia porcellus, po, read-out: ID50 (mg/kg), p.o., LTB4-induced bronchoconstriction
[6] = oral, read-out: ID50, LTB4-induced skin inflammation, oral route

T1 sequence (Q15722 whole entry): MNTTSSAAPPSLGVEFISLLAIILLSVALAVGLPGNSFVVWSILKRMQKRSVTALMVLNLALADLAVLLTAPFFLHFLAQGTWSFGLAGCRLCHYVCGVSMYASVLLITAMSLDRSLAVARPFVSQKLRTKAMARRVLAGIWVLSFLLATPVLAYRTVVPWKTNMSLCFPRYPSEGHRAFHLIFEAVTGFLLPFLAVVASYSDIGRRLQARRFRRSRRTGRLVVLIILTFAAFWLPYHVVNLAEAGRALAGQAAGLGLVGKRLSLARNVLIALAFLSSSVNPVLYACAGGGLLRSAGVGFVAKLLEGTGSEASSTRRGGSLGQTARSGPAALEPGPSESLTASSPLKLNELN

Structure (SMILES)	Ki (LTB4 Receptor) [nM]	IC50 [1] [nM]	ED50 ([2]; intravenous at the time of the intradermal LTB4 injection, read-out: ID50, LTB4-induced skin inflammation, intravenous administration) [mg/kg]	ED50 [2, 6] [mg/kg]	ID50, LTB4-induced skin inflammation, coinjection with LTB4 [2] [ng]	ED50 [3] [mg/kg]	% inhibition (myeloperoxidase, acetic acid colitis) [4] [%]	ED50 [5] [mg/kg]
CCCc1c(OCCCCCOc2ccc(C(=O)c3cccc(C(=O)O)c3)cc2CCC(=O)O)ccc2c1OCCC2=O [Example 20, 5-[(3-Carboxyphenyl)carbonyl]-2-[5-[(3,4-dihydro-4-oxo-8-propyl-2H-1-benzopyran-7-yl)oxy]pentyloxy]benzenepropanoic Acid]	2	1	6	30	100	1.46		
CCCc1c(OCCCCCCc2ccc(OCCCC(=O)O)cc2CCC(=O)O)ccc2c1OCCC2=O [Example 54, 5-(3-Carboxypropoxy)-2-[6-[(3,4-dihydro-4-oxo-8-propyl-2H-1-benzopyran-7-yl)oxy]hexyl]benzenepropanoic Acid]		2		5	10	0.01	68	8.7
CCCc1c(OCCCCCOc2cccc(OCCCCC(=O)O)c2CCC(=O)O)ccc2c1OCCC2=O [Example 62, 6-(4-Carboxybutoxy)-2-[5-[(3,4-dihydro-4-oxo-8-propyl-2H-1-benzopyran-7-yl)oxy]pentyloxy]benzenepropanoic Acid]	0.8				35	2.06		
CCCc1c(OCCCCCOc2ccc(C(=O)CCCC(=O)O)cc2CCC(=O)O)ccc2c1OCCC2=O [Example 87, 3-(2-Carboxyethyl)-4-[5-[(3,4-dihydro-4-oxo-8-propyl-2H-1-benzopyran-7-yl)oxy]pentyloxy]-δ-oxobenzenepentanoic Acid]	3				20	4.41		> 10
CCCc1c(OCCCCCCc2cccc(OCCCCC(=O)O)c2CCC(=O)O)ccc2c1OCCC2=O [Example 126, 2-(4-Carboxybutoxy)-6-[6-[(3,4-dihydro-4-oxo-8-propyl-2H-1-benzopyran-7-yl)oxy]hexyl]benzenepropanoic Acid]		2				0.12		0.54

Now from value to compound, other results behind:

Ki (LTB4 Receptor) [nM]	IC50 [1] [nM]	Structure (SMILES)	ED50 ([2]; intravenous at the time of the intradermal LTB4 injection, read-out: ID50, LTB4-induced skin inflammation, intravenous administration) [mg/kg]	ED50 [2, 6] [mg/kg]	ID50, LTB4-induced skin inflammation, coinjection with LTB4 [2] [ng]	ED50 [3] [mg/kg]	% inhibition (myeloperoxidase, acetic acid colitis) [4] [%]	ED50 [5] [mg/kg]
1		CCCc1c(OCCCCCCc2ccc(C(=O)c3cccc(C(=O)O)c3)cc2CCC(=O)O)ccc2c1OCCC2=O [Example 99, 5-[(3-Carboxyphenyl)carbonyl]-2-[6-[(3,4-dihydro-4-oxo-8-propyl-2H-1-benzopyran-7-yl)oxy]hexyl]benzenepropanoic Acid]			20			
	1	CCCc1c(OCCCCCCc2cccc(OCCCCCC(=O)O)c2CCC(=O)O)ccc2c1OCCC2=O [Example 157, 2-[(5-Carboxypentyl)oxy]-6-[6-[(3,4-dihydro-4-oxo-8-propyl-2H-1-benzopyran-7-yl)oxy]hexyl]benzenepropanoic Acid]				0.07		0.27
1	1	CCCc1c(OCCCCCCc2cccc(CCCCCC(=O)O)c2CCC(=O)O)ccc2c1OCCC2=O [Example 169, 2-(2-Carboxyethyl)-3-[6-[(3,4-dihydro-4-oxo-8-propyl-2H-1-benzopyran-7-yl)oxy]hexyl]benzenehexanoic Acid]				0.13		4.4
1	1	CCCc1c(OCCCCCCc2cccc(OCCCCCO)c2CCC(=O)O)ccc2c1OCCC2=O [Example 180, 2-[6-[(3,4-Dihydro-4-oxo-8-propyl-2H-1-benzopyran-7-yl)oxy]hexyl]-6-[(5-hydroxypentyl)oxy]benzenepropanoic Acid]				0.14		4.8
